Values after ≈ are worked out from the molar mass of the structure shown. Where two headings read alike, the source gives them in different places.
How the values were obtained:
[1] = test system: S. pyogenes GC 4563; assay: MIC, broth microdilution; settings: Streptococcus pyogenes, GC4563, S. pyogenes GC 4563
[2] = test system: S. typhimurium GC 2172; assay: MIC, broth microdilution; settings: Salmonella enterica, TYPHIMURIUM, S. typhimurium GC 2172
[3] = test system: S. pneumoniae* GC 4465; assay: MIC, broth microdilution; settings: Streptococcus pneumoniae, S. pneumoniae* GC 4465
[4] = test system: S. aureus GC 2216; assay: MIC, broth microdilution; settings: Staphylococcus aureus, GC2216, S. aureus GC 2216
[5] = test system: S. aureus GC 6466; assay: MIC, broth microdilution; settings: Staphylococcus aureus, GC6466, S. aureus GC 6466
[6] = test system: Staph. aureus Smith; assay: In vivo activity (oral, iv; ED50) against Staph. aureus Smith in mice
Protocol: Representative examples of compounds of Formula I were tested for the oral efficacy using S. aureus Smith in mice.

[7] = test system: E. faecium GC 4556; assay: MIC, broth microdilution; settings: Enterococcus faecium, GC4556, E. faecium GC 4556
Protocol: (§1) Antimicrobial susceptibility testing. The in vitro activities of the antibiotics are determined by the broth microdilution method as recommended by the National Committee for Clinical Laboratory Standards (NCCLS) (1). Mueller-Hinton II broth (MHBII)(BBL Cockeysville, Md.) is the medium employed in the testing procedures. Microtiter plates containing serial dilutions of each antimicrobial agent are inoculated with each organism to yield the appropriate density (10^5 CFU/ml) in a 100 μl final volume. The plates are incubated for 18-22 hours at 35° C. in ambient air.
(§2) Representative compounds were first incubated in mouse serum for an hour prior to the in vitro testing against a panel of selected gram-positive and gram-negative bacteria strains. All compounds were also pre-incubated in water for an hour prior to testing as control. Representative compounds of Formula I were incubated in human serum prior to MIC determination.

[8] = test system: Staph.; assay: Range of MIC for Staph. strains, including MRSA; settings: Staphylococcus aureus, MRSA
[9] = test system: E. coli GC 2236; assay: MIC, broth microdilution; settings: Escherichia coli, GC2236, E. coli GC 2236
[10] = test system: E. faecalis GC 4555; assay: MIC, broth microdilution; settings: Enterococcus faecalis, GC4555, E. faecalis GC 4555
[11] = test system: S. pneumoniae+ GC 4465; assay: MIC, broth microdilution; settings: Streptococcus pneumoniae, S. pneumoniae+ GC 4465
[12] = test system: E. coli; assay: Range of MIC for E. coli strains; settings: Escherichia coli
[13] = test system: S. aureus GC 4536; assay: MIC, broth microdilution; settings: Staphylococcus aureus, GC4536, S. aureus GC 4536
[14] = test system: S. agalactiae GC 4564; assay: MIC, broth microdilution; settings: Streptococcus agalactiae, GC4564, S. agalactiae GC 4564
[15] = test system: E. coli GC 2232; assay: MIC, broth microdilution; settings: Escherichia coli, GC2232, E. coli GC 2232
Protocol: as §1, §2

[16] = test system: E. faecalis GC 2242; assay: MIC, broth microdilution; settings: Enterococcus faecalis, GC2242, E. faecalis GC 2242
[17] = test system: E. coli GC 2234; assay: MIC, broth microdilution; settings: Escherichia coli, GC2234, E. coli GC 2234
[18] = test system: E. coli GC 2231; assay: MIC, broth microdilution; settings: Escherichia coli, GC2231, E. coli GC 2231
[19] = test system: E. coli GC 2235; assay: MIC, broth microdilution; settings: Escherichia coli, GC2235, E. coli GC 2235
Protocol: as §1, §2

[20] = test system: E. coli GC 4559; assay: MIC, broth microdilution; settings: Escherichia coli, GC4559, E. coli GC 4559
[21] = Staphylococcus aureus, in Mus musculus, po, read-out: ED50 Staph Smith SOD
[22] = iv, read-out: ED50 Staph Smith SIV
[23] = read-out: Range of MIC, Staph (Mouse Serum)
[24] = read-out: Range of MIC, Staph (Water)
[25] = 20 h, read-out: Range of MIC, E. coli (Mouse Serum)
[26] = read-out: Range of MIC, E. coli (Water)

## CCCN(CC(=O)Nc1cc(N(C)C)c2c(c1O)C(=O)C1=C(O)[C@]3(O)C(=O)C(C(N)=O)=C(O)[C@@H](N(C)C)[C@@H]3C[C@@H]1C2)C(=O)OCOC(=O)C1CCC1 [Example 7, ({[(2-{[(5aR,6aS,7S,10aS)-9-(aminocarbonyl)-4,7-bis(dimethylamino)-1,8,10a,11-tetrahydroxy-10,12-dioxo-5,5a,6,6a,7,10,10a,12-octahydrotetracen-2-yl]amino}-2-oxoethyl)(propyl)amino]carbonyl}oxy)methyl cyclobutanecarboxylate]
[1]; Mouse Serum pre-incubation
  MIC: 0.25 mg/L (≈ 0.344 µM)
[1]; Water pre-incubation
  MIC: 0.25 mg/L (≈ 0.344 µM)
[2]; Mouse Serum pre-incubation
  MIC: 4 mg/L (≈ 5.5 µM)
[2]; Water pre-incubation
  MIC: > 64 mg/L
[3]; Mouse Serum pre-incubation
  MIC: 0.25 mg/L (≈ 0.344 µM)
[3]; Water pre-incubation
  MIC: 0.12 mg/L (≈ 0.165 µM)
[4]; Mouse Serum pre-incubation
  MIC: 0.5 mg/L (≈ 0.687 µM)
[4]; Water pre-incubation
  MIC: 0.5 mg/L (≈ 0.687 µM)
[5]; Mouse Serum pre-incubation
  MIC: 0.5 mg/L (≈ 0.687 µM)
[5]; Water pre-incubation
  MIC: 0.5 mg/L (≈ 0.687 µM)
[6]; [21]
  ED50: 16.1 mg/kg
[6]; [22]
  ED50: 0.52 mg/kg
[7]; Mouse Serum pre-incubation
  MIC: 0.5 mg/L (≈ 0.687 µM)
[7]; Water pre-incubation
  MIC: 1 mg/L (≈ 1.37 µM)
[8]; [23]
  MIC: 0.5 to 4 mg/L (≈ 0.687 to 5.5 µM)
[8]; [24]
  MIC: 0.5 to 4 mg/L (≈ 0.687 to 5.5 µM)
[8]; read-out: Range of MIC, Staph. (mouse serum)
  MIC: 0.5 to 4 mg/L (≈ 0.687 to 5.5 µM)
[8]; read-out: Range of MIC, Staph. (water)
  MIC: 0.5 to 4 mg/L (≈ 0.687 to 5.5 µM)
[9]; Mouse Serum pre-incubation
  MIC: 0.25 mg/L (≈ 0.344 µM)
[9]; Water pre-incubation
  MIC: 2 mg/L (≈ 2.75 µM)
[10]; Mouse Serum pre-incubation
  MIC: 0.5 mg/L (≈ 0.687 µM)
[10]; Water pre-incubation
  MIC: 1 mg/L (≈ 1.37 µM)
[11]; Mouse Serum pre-incubation
  MIC: 4 mg/L (≈ 5.5 µM)
[11]; Water pre-incubation
  MIC: 2 mg/L (≈ 2.75 µM)
[12]; [25]
  MIC: 0.25 to 2 mg/L (≈ 0.344 to 2.75 µM)
[12]; [26]
  MIC: 2 to 16 mg/L (≈ 2.75 to 22 µM)
[12]; read-out: Range of MIC, E. coli (mouse serum)
  MIC: 0.25 to 2 mg/L (≈ 0.344 to 2.75 µM)
[12]; read-out: Range of MIC, E. coli (water)
  MIC: 2 to 16 mg/L (≈ 2.75 to 22 µM)
[13]; Mouse Serum pre-incubation
  MIC: 1 mg/L (≈ 1.37 µM)
[13]; Water pre-incubation
  MIC: 1 mg/L (≈ 1.37 µM)
[14]; Mouse Serum pre-incubation
  MIC: 0.25 mg/L (≈ 0.344 µM)
[14]; Water pre-incubation
  MIC: 0.5 mg/L (≈ 0.687 µM)
[15]; Mouse Serum pre-incubation
  MIC: 0.5 mg/L (≈ 0.687 µM)
[15]; Water pre-incubation
  MIC: 4 mg/L (≈ 5.5 µM)
[16]; Mouse Serum pre-incubation
  MIC: 1 mg/L (≈ 1.37 µM)
[16]; Water pre-incubation
  MIC: 1 mg/L (≈ 1.37 µM)
[17]; Mouse Serum pre-incubation
  MIC: 1 mg/L (≈ 1.37 µM)
[17]; Water pre-incubation
  MIC: 4 mg/L (≈ 5.5 µM)
[18]; Mouse Serum pre-incubation
  MIC: 2 mg/L (≈ 2.75 µM)
[18]; Water pre-incubation
  MIC: 16 mg/L (≈ 22 µM)
[19]; Mouse Serum pre-incubation
  MIC: 0.5 mg/L (≈ 0.687 µM)
[19]; Water pre-incubation
  MIC: 4 mg/L (≈ 5.5 µM)
[20]; Mouse Serum pre-incubation
  MIC: 1 mg/L (≈ 1.37 µM)
[20]; Water pre-incubation
  MIC: 8 mg/L (≈ 11 µM)

## CCCCN(CC(=O)Nc1cc(N(C)C)c2c(c1O)C(=O)C1=C(O)[C@]3(O)C(=O)C(C(N)=O)=C(O)[C@@H](N(C)C)C3CC1C2)C(=O)OCOC(=O)c1ccc(C)cc1 (stereo partly drawn) [Example 3, ({[(2-{[(7S,10aS)-9-(aminocarbonyl)-4,7-bis(dimethylamino)-1,8,10a,11-tetrahydroxy-10,12-dioxo-5,5a,6,6a,7,10,10a,12-octahydrotetracen-2-yl]amino}-2-oxoethyl)(butyl)amino]carbonyl}oxy)methyl 4-methylbenzoate]
[1]; Mouse Serum pre-incubation
  MIC: 0.12 mg/L (≈ 0.154 µM)
[1]; Water pre-incubation
  MIC: 0.25 mg/L (≈ 0.321 µM)
[2]; Mouse Serum pre-incubation
  MIC: 8 mg/L (≈ 10.3 µM)
[2]; Water pre-incubation
  MIC: > 64 mg/L
[3]; Mouse Serum pre-incubation
  MIC: 0.12 mg/L (≈ 0.154 µM)
[3]; Water pre-incubation
  MIC: 0.25 mg/L (≈ 0.321 µM)
[4]; Mouse Serum pre-incubation
  MIC: 1 mg/L (≈ 1.29 µM)
[4]; Water pre-incubation
  MIC: 4 mg/L (≈ 5.14 µM)
[5]; Mouse Serum pre-incubation
  MIC: 1 mg/L (≈ 1.29 µM)
[5]; Water pre-incubation
  MIC: 4 mg/L (≈ 5.14 µM)
[6]; [21]
  ED50: 16.1 mg/kg
[6]; [22]
  ED50: 0.59 mg/kg
[7]; Mouse Serum pre-incubation
  MIC: 2 mg/L (≈ 2.57 µM)
[7]; Water pre-incubation
  MIC: 16 mg/L (≈ 20.6 µM)
[8]; read-out: Minimum inhibitory concentration (MIC), Staph. (mouse serum)
  MIC: 1 to 4 mg/L (≈ 1.29 to 5.14 µM)
[8]; read-out: Minimum inhibitory concentration (MIC), Staph. (water)
  MIC: 4 to 32 mg/L (≈ 5.14 to 41.1 µM)
[8]; [23]
  MIC: 1 to 4 mg/L (≈ 1.29 to 5.14 µM)
[8]; [24]
  MIC: 4 to 32 mg/L (≈ 5.14 to 41.1 µM)
[9]; Mouse Serum pre-incubation
  MIC: 1 mg/L (≈ 1.29 µM)
[9]; Water pre-incubation
  MIC: > 64 mg/L
[10]; Mouse Serum pre-incubation
  MIC: 1 mg/L (≈ 1.29 µM)
[10]; Water pre-incubation
  MIC: 8 mg/L (≈ 10.3 µM)
[11]; Mouse Serum pre-incubation
  MIC: 1 mg/L (≈ 1.29 µM)
[11]; Water pre-incubation
  MIC: 2 mg/L (≈ 2.57 µM)
[12]; [25]
  MIC: 1 to 2 mg/L (≈ 1.29 to 2.57 µM)
[12]; read-out: Minimum inhibitory concentration (MIC), E. coli (mouse serum)
  MIC: 1 to 2 mg/L (≈ 1.29 to 2.57 µM)
[12]; read-out: Minimum inhibitory concentration (MIC), E. coli (water)
  MIC: > 64 mg/L
[12]; [26]
  MIC: > 64 mg/L
[13]; Mouse Serum pre-incubation
  MIC: 2 mg/L (≈ 2.57 µM)
[13]; Water pre-incubation
  MIC: 4 mg/L (≈ 5.14 µM)
[14]; Mouse Serum pre-incubation
  MIC: 1 mg/L (≈ 1.29 µM)
[14]; Water pre-incubation
  MIC: 2 mg/L (≈ 2.57 µM)
[15]; Mouse Serum pre-incubation
  MIC: 2 mg/L (≈ 2.57 µM)
[15]; Water pre-incubation
  MIC: > 64 mg/L
[16]; Mouse Serum pre-incubation
  MIC: 2 mg/L (≈ 2.57 µM)
[16]; Water pre-incubation
  MIC: 16 mg/L (≈ 20.6 µM)
[17]; Mouse Serum pre-incubation
  MIC: 1 mg/L (≈ 1.29 µM)
[17]; Water pre-incubation
  MIC: > 64 mg/L
[18]; Mouse Serum pre-incubation
  MIC: 2 mg/L (≈ 2.57 µM)
[18]; Water pre-incubation
  MIC: > 64 mg/L
[19]; Mouse Serum pre-incubation
  MIC: 1 mg/L (≈ 1.29 µM)
[19]; Water pre-incubation
  MIC: > 64 mg/L
[20]; Mouse Serum pre-incubation
  MIC: 2 mg/L (≈ 2.57 µM)
[20]; Water pre-incubation
  MIC: > 64 mg/L

— patent US20070049564A1 (Wyeth, priority 2005, published 2007)
